In the NIST ThermoML archive (doi:10.1021/je9005689):
± gives the expanded uncertainty stated by the source.

Legend:
[1] = Crystal; DTA
[2] = Molar enthalpy of transition or fusion; settings: Crystal; DSC

COc1cnc(Cl)nc1Cl [2,4-dichloro-5-methoxypyrimidine]
Normal melting temperature [1]: 69.00 ± 0.5 °C | Molar enthalpy of transition or fusion [2]: 4.22 ± 0.1 kcal/mol
